Measured values reported in PubChem BioAssay AID493130 (Broad Institute, 2011).
Results filed as inconclusive are left out. Activity calls are given as the source filed them.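 The calls were made as follows: active = signal-lowering compounds whose fitted half-maximal concentration is at most ten times their highest tested dose; inconclusive = flat fit between -30 and -70%, or poor fit; inactive = flat within 30%, signal rising, or potency beyond limit.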

Target: POS-1 (Caenorhabditis elegans) binding to mex-3 RNA
Assay: inhibitors of POS-1/mex-3 RNA binding, dose response, counter-screen for MEX-5 RNA-binding inhibitor project, biochemical, fluorescence polarization, cherry-picked samples, set 2 (AID 493130);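 also: POS-1 as maltose binding protein fusion made in E. coli with FITC RNA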;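 as to activity change, negative = inhibition: 0% = DMSO neutral wells and -100% = excess unlabeled mex3 competitor RNA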
Details: POS-1/mex-3 RNA fluorescence polarization, 1 h; for activity change, negative = inhibition: at 10 µM (top of the series)

Structure (SMILES)	activity change, negative = inhibition	AC50 [µM]
COc1cc(CCC(=O)Nc2ccc(Cl)c(C(F)(F)F)c2)cc(OC)c1OC	inactive	–
COc1ccc(NC(=S)NNC(=O)C(C)n2nc(C)c([N+](=O)[O-])c2C)cc1 (stereo unspecified)	inactive	–
Cc1cc(=O)oc(C)c1C(=O)Nc1ccc2ncccc2c1	–	8.33
O=c1nc(-c2ccccc2)c2cc(Br)ccc2[nH]1	inactive	–
Cc1c(Cl)cccc1NC(=O)C(=O)NNS(=O)(=O)c1ccc(F)cc1	inactive	–
O=C(CSc1nnc(COc2ccccc2)o1)Nc1nccs1	inactive	–
Oc1cccc(/C=N/NC(=S)Nc2cccnc2)c1O	inactive	–
CN1CC=C2C(C#N)=C(N)C(C#N)(C#N)[C@H](c3cccs3)[C@H]2C1	–	6.12
CC(=O)NNc1ncnc2ccccc12	inactive	–
Cc1ccc(-c2nc(C=Nc3ccccc3)c(O)o2)cc1	inactive	–
O=C(NN=C1C2CC3CC1CC(Cl)(C3)C2)c1ccccn1	inactive	–
C=CCn1c(O)c(N=NC(=S)Nc2cccc(C)c2)c2ccccc21	inactive	–
Nc1ccc(Oc2ncccn2)cc1	inactive	–
Cn1c(C2=C(O)CN(c3ccccc3)C2=N)nc2ccccc21	inactive	–
Cc1ccccc1C(=O)N=c1ccn(-c2nc3ccccc3nc2NS(=O)(=O)c2ccccc2)cc1	inactive	–
O=C(O)c1cc(-c2ccco2)nc2cc3ccccc3cc12	inactive	–
COc1cc(N2CCCC2)c(OC)cc1/C=C(/C#N)c1cccc(Br)c1	inactive	–
CCCC(=O)Nc1ccc(NC(=O)c2cccs2)cn1	inactive	–
CC[n+]1c(/C=C/C=C/c2ccc(N(C)C)cc2)sc2ccccc21	inactive	–
CCOC(=O)c1ccc(N=Nc2c(C)c(C#N)c(O)[nH]c2=O)cc1	inactive	–
CCc1cc(-c2n[nH]c(C)c2-c2nc3ccccc3s2)c(O)cc1OCC(=O)NN	inactive	–
COc1ccc(-c2cn[nH]c2-c2ccc(OCC(=O)NN)cc2O)cc1	inactive	–
CCN1/C(=C2\SC(=S)N(Cc3ccccc3)C2=O)Sc2ccccc21	–	1.6
CCOC(=O)c1cnc(SCC(=O)NNC(=O)c2ccco2)nc1N	inactive	–

Structure (SMILES)	activity change, negative = inhibition	AC50 [µM]
Cc1ccc(C(=O)N/C(=C\c2ccc(-c3cccc([N+](=O)[O-])c3)o2)C(=O)NCCCN(C)C)cc1	inactive	–
CCN(CC)c1ccc(C(=O)N/N=C(\C)c2cccnc2)cc1	inactive	–
O=C(NNC(=O)c1ccccc1[N+](=O)[O-])c1ccco1	inactive	–
Cn1c(O)c(C2=c3ccccc3=NC2=O)[nH]c1=S	inactive	–
Cc1nnc(N2C(=O)C(O)=C(C(=O)c3ccco3)C2c2ccc(C(C)C)cc2)s1 (stereo unspecified)	inactive	–
COC(=O)c1cc(NC(=O)c2ccccc2)c(=O)oc1C	inactive	–
CCOC(=O)Cc1csc(NC(=O)c2sc3nc4c(C)cc(C)cc4cc3c2N)n1	inactive	–
Cc1cc(C)c2ccc(C(=O)O)nc2c1O	inactive	–
COc1ccc(N(CCC#N)C(=O)/C(C#N)=C\c2cccs2)cc1	inactive	–
O=C(O)Cn1c(O)c(C2=c3ccccc3=NC2=O)sc1=O	inactive	–
O=C(O)c1ccc2c(c1)C(=O)/C(=C/c1ccccc1)C2=O	inactive	–
O=[N+]([O-])c1ccc(/C=N/n2c(CO)nc3ccccc32)s1	inactive	–
NC1=NC(=O)/C(=C\c2ccc(O)c([N+](=O)[O-])c2)S1	inactive	–
O=c1ccc2cc3c([nH]c4ccc(Br)cc43)oc-2c1O	–	1.64
O=C(O)c1ccc(N2C(=O)c3cccc4c(C(=O)O)ccc(c34)C2=O)cc1	inactive	–
Nc1nc(Cl)nc2ccc(Br)cc12	inactive	–
COCC(C)N1CCC(n2nccc2NC(=O)CCCc2ccccc2)CC1 (stereo unspecified)	inactive	–
CC(=O)Nc1ccc(N2C(=O)c3cccc4c(O)ccc(c34)C2=O)cc1	–	1.41
O=C(N/N=C/C1C(=O)NC(=S)N(c2ccccc2)C1=O)c1cc(Br)c(O)c(Br)c1 (stereo unspecified)	–	7.64
O=C1SC(SCc2ccccc2)=N/C1=C\c1ccc(C(=O)O)cc1	inactive	–
NC(=O)C(=O)N/N=C1\CCc2ccccc21	inactive	–
CN(C)CC(O)COc1ccc(C(C)(C)c2ccc(OCC(O)CN(C)C)cc2)cc1 (stereo unspecified)	inactive	–
O=C(O)CCSc1nc2ccccc2n1Cc1ccccc1	inactive	–
CC1C(=O)NN=C1C(=O)N/N=C\c1ccc(O)cc1O (stereo unspecified)	–	9.42

Structure (SMILES)	activity change, negative = inhibition	AC50 [µM]
COc1ccccc1/C=C1\SC(=S)N(CCC(=O)Nc2cc(C)on2)C1=O	inactive	–
CCOC(=O)NNc1ccc2nonc2c1[N+](=O)[O-]	inactive	–
COC(=O)c1cccc2nc3c(C(C)O)cccc3nc12 (stereo unspecified)	inactive	–
COc1ccc(CC(=O)NNc2ncnc3c2cnn3C)cc1	inactive	–
CCCCN(C(=O)c1ccc(C)o1)c1c(N)n(CCCC)c(=O)[nH]c1=O	inactive	–
O=C(Nc1nccs1)c1ccc(-c2ccc(Cl)cc2)o1	inactive	–
COc1ccc(/C=N/NC(=O)c2ccc(=O)[nH]n2)cc1OC	inactive	–
O=C(Nc1cccnc1)c1cccs1	inactive	–
C=CCn1c(O)c(N=NC(=O)CNC(=O)/C=C/c2ccco2)c2ccccc21	inactive	–
COc1cc(/C=N/NC(=O)CNS(=O)(=O)c2ccc(C)cc2)cc(OC)c1OC	inactive	–
CCOc1ccc(/C=C/C(=O)c2ccccc2)cc1	inactive	–
Cc1c(N=Cc2cc3c(cc2[N+](=O)[O-])OCO3)cccc1[N+](=O)[O-]	inactive	–
O=C(O)c1ccc(Cl)c2c1C1C=CCC1C(c1ccccn1)N2 (stereo unspecified)	–	8.69
COc1ccc(CCn2c(=N)c(C(=O)NCC3CCCO3)cc3c(=O)n4cccc(C)c4nc32)cc1 (stereo unspecified)	inactive	–
Cc1ccc(S(=O)(=O)c2cc3c(=O)n4ccccc4nc3n(C)c2=N)cc1	inactive	–
CN(C)[C@@H]1C(=O)C(C(N)=O)=C(O)[C@@]2(O)C(=O)C3=C(O)c4c(O)cccc4[C@@](C)(O)[C@H]3[C@H](O)[C@@H]12	–	4.07
Cc1ccc(O)c(N=CC2=C(O)c3ccccc3C2=O)c1	inactive	–
CCN1C/C(=C/c2ccc(OC)c(O)c2)C(=O)/C(=C/c2ccc(OC)c(O)c2)C1	inactive	–
Cc1cccc(C(=O)NNC(=O)c2csc(N3CCOCC3)n2)c1C	inactive	–
Cc1ccc2cc(C#N)c(N3CCCN(C(=O)C4CCCO4)CC3)nc2c1C (stereo unspecified)	inactive	–
COc1ccc(NC(=O)c2sc3nc(Cc4ccccc4)cc(C(F)(F)F)c3c2N)cc1OC	inactive	–
Cn1c(=O)c2c(nc(NN=C3CCCCC3)n2C)n(C)c1=O	inactive	–
Cc1c(C(=O)O)c(C(=O)O)nc2ccc(N3CCOCC3)cc12	inactive	–
COc1ccccc1N=Nc1c(C)[nH][nH]c1=O	inactive	–

Structure (SMILES)	activity change, negative = inhibition	AC50 [µM]
O=C(NNC(=O)c1ccco1)c1csc(N2CCOCC2)n1	inactive	–
CCN(CC)c1ccc(N=Cc2c(O)n(-c3ccccc3C)c(=O)[nH]c2=O)cc1	inactive	–
CC1(C)CC(=O)C2=C(C1)OC(N)=C(C#N)C2c1ccccc1[N+](=O)[O-] (stereo unspecified)	inactive	–
COc1ccc(/C=C2\CCCc3c2nc2ccc(C)cc2c3C(=O)O)cc1O	inactive	–
Oc1[nH]c(N=C2N=c3ccccc3=N2)c2ccccc12	inactive	–
Oc1ccc(C2C=C(c3ccc(F)cc3)Nc3ncnn32)cc1 (stereo unspecified)	inactive	–
CN(N)c1ccc2c(C(F)(F)F)cc(C(F)(F)F)nc2n1	inactive	–
CC1=CC(=C2C(=O)NC(=S)NC2=O)C=C(C(F)(F)F)N1Cc1ccccc1	inactive	–
COC(=O)c1ccc(CC(=O)c2ccc(O)cc2O)o1	inactive	–
S=c1[nH]cnc2sc(Nc3ccccc3)nc12	inactive	–
CC(=O)c1c2c3c(c(Br)ccc3n(C)c1=O)C(=O)c1ccccc1-2	inactive	–
NC(=O)c1cccc2cc3ccccc3cc12	inactive	–
O=[N+]([O-])c1cc([N+](=O)[O-])c2cccnc2c1Oc1ccccc1O	inactive	–
O=C(CCc1ccccc1)N/N=C\c1cc2c(cc1Br)OCO2	inactive	–
COc1ccc(N=C2S/C(=C\c3ccc(N4CCOCC4)o3)C(=O)N2CCc2c[nH]c3ccccc23)cc1	inactive	–
CNC(=O)c1c(NC(=O)c2nc3ccccc3s2)sc2c1CCC2	inactive	–
CSc1nc(N)c(N=Nc2ccc([As](=O)(O)O)cc2)c(=O)[nH]1	inactive	–
CCc1nnc2c(N(C)C)nc3ccccc3n12	inactive	–
O=[N+]([O-])c1cc(/C=N\Nc2nccs2)ccc1O	–	2.55
COc1ccc(C(=O)C/C(=C\C(=O)c2ccc(C)cc2)c2ccccc2)cc1	inactive	–
Cc1c(CN2CCCC(C)C2)c(O)n(CCO)c(=O)c1C#N (stereo unspecified)	inactive	–
COC(=O)c1ccc(N2NC(=O)/C(=C/c3ccc(-c4ccc(Cl)c(C(=O)O)c4)o3)C2=O)cc1	inactive	–
COc1ccccc1-c1cn[nH]c1-c1ccc(O)cc1O	inactive	–
COc1ccc(NCc2cccnc2)cc1	inactive	–
